Data from PubChem BioAssay AID248 (DTP/NCI, 2004).
Where “and” joins values, the source holds several entries; their conditions need not be identical. Identical values can stand only once. Inconclusive results and toxic doses are left out. No stated cut-off is given here; in the data, active means T/C of 150% or more; inactive means T/C below 125%.

System: L1210 leukemia ip in BDF1 mice, survival T/C
Test: NCI In Vivo Anticancer Drug Screen. Data for tumor model L1210 Leukemia (intraperitoneal) in B6D2F1 (BDF1) mice
Details: endpoint: mean survival time, higher = longer survival
Summary of the method: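 Read-out is survival time, reported as the treated-group measurement over the vehicle-control measurement.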

[1] = dose: 100.0 mg/kg/injection, schedule: Q01DX009 (ip), vehicle: Klucel (hydroxypropylcellulose) (HPC)
[2] = dose: 200.0 mg/kg/injection, schedule: Q01DX009 (ip), vehicle: Klucel (hydroxypropylcellulose) (HPC)
[3] = dose: 400.0 mg/kg/injection, schedule: Q01DX009 (ip), vehicle: Klucel (hydroxypropylcellulose) (HPC)
[4] = dose: 400.0 mg/kg/injection, schedule: Q04DX003 (ip), vehicle: Klucel (hydroxypropylcellulose) (HPC)
[5] = dose: 100.0 mg/kg/injection, schedule: Q04DX002 (ip), vehicle: Klucel (hydroxypropylcellulose) (HPC)
[6] = dose: 200.0 mg/kg/injection, schedule: Q04DX002 (ip), vehicle: Klucel (hydroxypropylcellulose) (HPC)
[7] = dose: 400.0 mg/kg/injection, schedule: Q04DX002 (ip), vehicle: Klucel (hydroxypropylcellulose) (HPC)
[8] = dose: 100.0 mg/kg/injection, schedule: Q01DX001 (ip), vehicle: saline with Tween-80
[9] = dose: 100.0 mg/kg/injection, schedule: Q04DX003 (ip), vehicle: saline with Tween-80
[10] = dose: 200.0 mg/kg/injection, schedule: Q01DX001 (ip), vehicle: saline with Tween-80
[11] = dose: 200.0 mg/kg/injection, schedule: Q04DX003 (ip), vehicle: saline with Tween-80
[12] = dose: 400.0 mg/kg/injection, schedule: Q01DX001 (ip), vehicle: saline with Tween-80
[13] = dose: 400.0 mg/kg/injection, schedule: Q04DX003 (ip), vehicle: saline with Tween-80
[14] = dose: 50.0 mg/kg/injection, schedule: Q01DX001 (ip), vehicle: carboxymethylcellulose (CMC)
[15] = dose: 100.0 mg/kg/injection, schedule: Q01DX001 (ip), vehicle: carboxymethylcellulose (CMC)
[16] = dose: 200.0 mg/kg/injection, schedule: Q01DX001 (ip), vehicle: carboxymethylcellulose (CMC)
[17] = dose: 400.0 mg/kg/injection, schedule: Q01DX001 (ip), vehicle: carboxymethylcellulose (CMC)

Measured: T/C

O=[N+]([O-])c1ccc(CS(=O)(=O)Cc2ccc([N+](=O)[O-])cc2)cc1
inactive: dose: 150.0 mg/kg/injection, schedule: Q01DX001 (ip), vehicle: carboxymethylcellulose (CMC) 93 % of control | dose: 300.0 mg/kg/injection, schedule: Q01DX001 (ip), vehicle: carboxymethylcellulose (CMC) 89 % of control

CC1C(N2CCOCC2)CS1(=O)=O (centres undefined)
inactive: [1] 92 % of control | dose: 100.0 mg/kg/injection, schedule: Q04DX003 (ip), vehicle: Klucel (hydroxypropylcellulose) (HPC) 93 % of control | [2] 94 % of control | dose: 200.0 mg/kg/injection, schedule: Q04DX003 (ip), vehicle: Klucel (hydroxypropylcellulose) (HPC) 98 % of control | [3] 103 % of control | [4] 98 % of control

COc1ccc(/C=N\NC(=O)c2ccncc2)cc1OC
inactive: dose: 50.0 mg/kg/injection, schedule: Q04DX002 (ip), vehicle: Klucel (hydroxypropylcellulose) (HPC) 101 % of control | [5] 106 % of control | [6] 109 % of control | [7] 103 % of control

CCSC(SCC)C(OC(C)=O)C(OC(C)=O)C(OC(C)=O)C(C)OC(C)=O (centres undefined)
inactive: [8] 99 % of control | dose: 100.0 mg/kg/injection, schedule: Q01DX009 (ip), vehicle: saline with Tween-80 95 % of control and 89 % of control | dose: 100.0 mg/kg/injection, schedule: Q04DX002 (ip), vehicle: saline with Tween-80 93 % of control and 105 % of control | [9] 107 % of control | [10] 103 % of control | dose: 200.0 mg/kg/injection, schedule: Q01DX009 (ip), vehicle: saline with Tween-80 98 % of control and 100 % of control | dose: 200.0 mg/kg/injection, schedule: Q04DX002 (ip), vehicle: saline with Tween-80 94 % of control and 92 % of control | [11] 91 % of control | [12] 101 % of control | dose: 400.0 mg/kg/injection, schedule: Q01DX009 (ip), vehicle: saline with Tween-80 87 % of control and 88 % of control | dose: 400.0 mg/kg/injection, schedule: Q04DX002 (ip), vehicle: saline with Tween-80 100 % of control and 87 % of control | [13] 93 % of control

CN(C)C(=S)Sc1ccc([N+](=O)[O-])cc1[N+](=O)[O-]
inactive: [8] 96 % of control | [1] 91 % of control | [10] 100 % of control | [2] 93 % of control | [12] 100 % of control | [4] 86 % of control

CC(=O)Cc1c[nH]c2ccccc12
inactive: [14] 103 % of control | [15] 97 % of control | [5] 97 % of control | [16] 106 % of control | [6] 101 % of control | [17] 103 % of control | [7] 111 % of control

NC(=O)O/N=C/c1ccccn1
inactive: [9] 105 % of control | [11] 103 % of control | [13] 106 % of control

CCOC(=O)Sc1ccccc1
inactive: dose: 100.0 mg/kg/injection, schedule: Q01DX001 (ip), vehicle: other 102 % of control | dose: 200.0 mg/kg/injection, schedule: Q01DX001 (ip), vehicle: other 94 % of control

COC1OC(COC(=O)c2ccccc2)C(OS(=O)(=O)c2ccc(C)cc2)C1OCc1ccccc1 (centres undefined)
inactive: [14] 98 % of control | [15] 93 % of control | [16] 95 % of control | [17] 95 % of control

Cc1ccc(S(=O)(=O)NCCCOS(=O)(=O)c2ccc(C)cc2)cc1
inactive: [1] 104 % of control | dose: 100.0 mg/kg/injection, schedule: Q04DX003 (ip), vehicle: acetone 97 % of control | [2] 93 % of control | dose: 200.0 mg/kg/injection, schedule: Q04DX003 (ip), vehicle: acetone 95 % of control | [3] 93 % of control | dose: 400.0 mg/kg/injection, schedule: Q04DX003 (ip), vehicle: acetone 94 % of control

C/C(=C/c1ccccc1)OC(=O)c1ccccc1
inactive: [14] 87 % of control | [15] 86 % of control
